Experimental data from patent US6706509B2, “Oncoprotein protein kinase” (The Regents of the University of California, priority 1993, dated 2004).

Columns and labels:
ERK1 and ERK2 = ERK1 and ERK2 immunecomplex kinase assay with MBP substrate, Jurkat cells and mouse thymocytes; assay type: cell-based, human; mouse
Protocol: Exponentially growing cells were stimulated for the indicated times and hypotonic detergent cellular extracts were prepared as described (Hibi, et al., Genes and Dev., supra, 1993). The solid-state phosphorylation assay for measuring JNK activity was performed by incubated extracts with GSTcJun(1-223)-GSH agarose beads as described (Hibi, et al., supra., 1993) and as in Example 2. ERK1 and 2 activity was assayed by an immunecomplex kinase assay using MBP as a substrate (Minden, et al., Nature, 1993).
JNK is a proline-directed protein kinase activated by extracellular stimuli (Hibi, et al., supra, 1993). In that respect, it resembles the ERK1 and 2 MAP kinases (Boulton, et al., Cell, 65:663-675, 1991). Since ERK1 and 2 appear to be involved in induction of c-fos (Gille, et al., Nature, 358:414-417, 1992; Marais, et al., Cell, 73:381-393, 1993) and could thereby participate in T cell activation, their regulation was examined. ERK1 and ERK2 activities were measured in both Jurkat and mouse thymocytes using an immunecomplex kinase assay and myelin basic protein (MBP) as a substrate. Recombinant, kinase-defective ERK1 was also used a substrate for assaying MEK, the protein kinase responsible for activation of ERK1 and 2 (Crews, et al., Science, 258:478-480, 1992).
WCE (5 μg) of Jurkat (FIG. 15, panel A) or mouse thymocytes (panel C) were incubated with 1 μg of kinase-defective ERK1 in kinase buffer containing γ-^32P-ATP for 20 minutes. The phosphorylated proteins were separated by SDS-PAGE and the band corresponding to the mutant ERK1 is indicated. WCE (20 μg) of Jurkat (panel B) or mouse thymocytes (panel C) that were treated as described above were immunoprecipitated with anti-ERK antibodies (a gift from Dr. M. Weber). The immune complexes were washed and incubated in kinase buffer containing γ-^32P-ATP and 2 μg MBP for 15 minutes at 30° C. The phosphorylated proteins were separated by SDS-PAGE. The band corresponding to phosphorylated MBP is indicated.

JNK = assay: Solid-state phosphorylation assay of JNK in mouse thymocytes; assay type: cell-based
Protocol: (§1) Jurkat cells were grown in RPMI with 10% fetal calf serum (FCS), 1 mM […], 100 μ/ml penicillin (pen), 100 μg/ml streptomycin (strep) and 250 ng/ml amphotericin (complete medium). HeLa S3, CV-1 and FR3T3 cells were grown in DMEM supplemented with 10% FCS, 100 μ/ml pen, 100 μg/ml strep. All cells were cultured at 37° C. with 5% CO2. Mouse thymocytes were prepared from 8 week old Balb/C mice by gradient centrifugation on lymphocyte separation medium (Pharmacia). The lymphocytes were cultured for 5 hours at 37° C. in RPMI+10% FCS, prior to stimulation. Jurkat cells were labelled for 90 minutes with 0.5 mCi/ml ^32P-orthophosphate (ICN Radiochemicals) in medium lacking sodium phosphate. Labelled cells were treated with TPA (Sigma) and A23187 (Calbiochem) 1 μg/ml as indicated. When used, cyclosporin A (CsA) (Sandoz) 100 ng/ml in ethanol was added 10 minutes prior to cell stimulation. Following stimulation, the labelled cells were washed twice with ice-cold PBS then lysed with RIPA buffer (10 mM Tris pH 7.5, 150 mM NaCl, 2 mM EDTA, 1% Triton-X 100, 1% DOC, 0.1% SDS) supplemented with phosphatase inhibitors (20 mM β-glycerophosphate, 10 mM p-nitro-phenylphosphate, 1 mM Na3 VO4), and protease inhibitors (10 μg/ml leupeptin, aprotonin, pepstatin and 1 mM phenylmethyl sulfonylfluoride). c-Jun was immunoprecipitated as described (Binetruy, et al., supra., 1992) and analyzed by SDS-PAGE, followed by peptide mapping (Boyle, et al., Cell, 64:573-584, 1991; Lin, et al. Cell, 70:777-789, 1992). Ha-Ras was immunoprecipitated with Y13-259. Ha-Ras bound nucleotides were extracted and analyzed as described by Satoh, et al., (Proc. Natl. Acad. Sci., USA, 15:5993-5997, 1990).
We examined whether elevated intracellular Ca^++ affects JNK activation in other cells. […] Cultures of FR3T3, CV-1, PC12 and mouse thymocytes were incubated for 15 minutes in the presence of TPA (50 ng/ml, T), A23817 (1 μg/ml, A) and/or CsA (100 ng/ml), as indicated. […] After washing, JNK activity was determined by solid-state phosphorylation assay as described above.

c-jun = assay: c-Jun phosphorylation in 32P-labelled Jurkat cells (SDS-PAGE, tryptic phosphopeptide mapping); assay type: cell-based, human
Protocol: as §1
Induction of c-Jun transcription and optimal stimulation of AP-1 correlate with changes in c-jun phosphorylation (Devary, et al., Cell, 71:1081-1091, 1992). The effect of TPA and A23187 on c-Jun phosphorylation in Jurkat cells was examined. To elevate c-Jun expression, Jurkat cells were transfected with a c-Jun expression vector. The cells were labelled with ^32P and c-Jun was immunoprecipitated from cells subjected to various stimuli and analyzed by SDS-PAGE (FIG. 12A). Jurkat cells (10^6 cells per lane) were transfected with 0.5 μg of a SRα-cJun expression vector and 24 hours later were labeled for 3 hours with ^32P-orthophosphate (1 mCi/ml). After 15 minutes, treatment with 50 ng/ml TPA (T), 1 μg/ml A23187 (A) and 100 ng/ml CsA, either alone or in combination, as indicated, the cells were lysed in RIPA buffer and c-Jun was isolated by immunoprecipitation and analyzed by SDS-PAGE. The c-Jun bands are indicated.
c-Jun phosphorylation was further analyzed by two-dimensional phosphopeptide mapping (FIG. 12C). This analysis included all the isoforms of c-Jun. All of the c-Jun specific protein bands shown in FIG. 12A, isolated from equal numbers of cells, were excised from the gel and subjected to tryptic phosphopeptide mapping. Shown is a typical result (this experiment was repeated at least three times). N-nonstimulated cells; T-cells treated with 50 ng/ml TPA; T/A: cells treated with 50 ng/ml TPA and 1 μg/ml A23187; T/A+CsA: cells treated with T/A and 100 ng/ml CsA. a,b,c,x and y correspond to the various tryptic phosphopeptides of c-Jun, previously described by Boyle, et al., (Cell, 64:573-584, 1991) and Smeal, et al., (Nature, 354:494-496, 1991). T1 and T2 correspond to the minor phosphorylation sites; Thr91, 93 and 95 (Hibi, et al., Genes & Dev., 7:000, 1993).

Compound	ERK activity, effect of A23187 or CsA (ERK1 and ERK2)	JNK activity, CsA added to TPA+A23187 (JNK; CsA 100 ng/ml)	N-terminal c-Jun phosphorylation, CsA added to TPA+A23187 (c-jun; CsA 100 ng/ml)	phosphorylated c-Jun migration, CsA added to TPA+A23187 (c-jun; CsA 100 ng/ml, 15 minutes)	JNK activity, costimulation with TPA (JNK; A23187 1 μg/ml plus TPA)	N-terminal c-Jun phosphorylation, costimulation with TPA (c-jun; A23187 1 μg/ml plus TPA 50 ng/ml)	phosphorylated c-Jun migration, costimulation with TPA (c-jun; A23187 1 μg/ml plus TPA, 15 minutes)	ERK activity, TPA treatment (ERK1 and ERK2; Jurkat cells or mouse thymocytes)	JNK activity, TPA alone (JNK; TPA 50 ng/ml, 15 minutes)	phosphorylated c-Jun migration on SDS-PAGE, agent alone (c-jun; Jurkat transfected with c-Jun vector, TPA 50 ng/ml, 15 minutes)	phosphorylation of N-terminal sites Ser63 and Ser73 of c-Jun (phosphopeptide map), agent alone (c-jun; Jurkat, TPA 50 ng/ml)
cyclosporin A [CsA]	had no effect on either activity	inhibited	prevented the enhancement of N-terminal phosphorylation	reduced the Ca^++ effect	–	–	–	–	–	–	–
CNc1ccc2oc(C[C@H]3O[C@@]4(CC[C@H]3C)O[C@H]([C@H](C)C(=O)c3ccc[nH]3)[C@H](C)C[C@H]4C)nc2c1C(=O)O [A23187]	had no effect on either activity	–	–	–	enhanced	strongly enhanced	enhanced this effect	–	–	–	–
CCCCCCCCCCCCCC(=O)O[C@@H]1[C@@H](C)[C@@]2(O)[C@@H](C=C(CO)C[C@]3(O)C(=O)C(C)=C[C@@H]23)[C@H]2C(C)(C)[C@]12OC(C)=O [TPA]	–	–	–	–	–	–	–	fully stimulated	moderate increase in JNK activity	induced the appearance of slower migrating bands	increased phosphorylation of the N-terminal sites
